The NIST ThermoML archive (doi:10.1016/j.jct.2013.01.010)

Legend:
[1] = xn = mol fraction of the nth substance listed; conditions: 101 kPa, Liquid; for speed of sound: Sing-around technique in a fixed-path interferometer; for mass density: Vibrating tube method
[2] = excess molar enthalpy (molar enthalpy of mixing); xn = mol fraction of the nth substance listed; conditions: 298.15 K, 101 kPa, Liquid, 2-Drop Calorimetry

CCn1cc[n+](C)c1.F[B-](F)(F)F [1-ethyl-3-methylimidazolium tetrafluoroborate] + CC(C)=O
[1]
Conditions	mass density, 293.15 K [kg/m3]	mass density, 298.15 K [kg/m3]	mass density, 303.15 K [kg/m3]	mass density, 308.15 K [kg/m3]	speed of sound, 293.15 K [m/s]	speed of sound, 298.15 K [m/s]	speed of sound, 303.15 K [m/s]	speed of sound, 308.15 K [m/s]
x1 = 0.1214	933.27	928.61	923.44	918.15	1241.1	1221	1193.4	1172.8
x1 = 0.1789	987.63	983.61	978.74	973.95	1280.4	1261.7	1233.4	1211.1
x1 = 0.2147	1017.82	1013.85	1009.37	1004.85	1307.6	1290.7	1262.9	1238.4
x1 = 0.2813	1066.88	1063.3	1059.25	1055.19	1360.4	1349.9	1321.9	1295.2
x1 = 0.3219	1092.73	1089.56	1085.84	1082.01	1394.1	1386.6	1358.3	1331
x1 = 0.3649	1117.49	1114.19	1110.78	1107.15	1429.2	1423.4	1398.5	1367.9
x1 = 0.4193	1144.91	1141.69	1138.75	1135.16	1473.1	1469.1	1449.6	1417.4
x1 = 0.4714	1167.62	1164.64	1161.69	1158.46	1507.7	1510.2	1490.7	1458.4
x1 = 0.5217	1186.9	1183.85	1181.07	1177.84	1539.7	1539.6	1526.3	1498
x1 = 0.5772	1205.54	1202.14	1199.7	1196.16	1566	1566.1	1559.2	1531
x1 = 0.6319	1221.27	1217.91	1215.28	1211.72	1583	1585.4	1579.8	1558.2
x1 = 0.6768	1232.69	1229.09	1226.6	1222.91	1593.5	1591.6	1587.6	1574.7
x1 = 0.7199	1242.54	1238.8	1236.06	1232.31	1601.6	1596.9	1594	1587.8
x1 = 0.7724	1252.97	1249.12	1246.25	1242.25	1604.7	1595.8	1592.9	1595.8
x1 = 0.8304	1263	1258.91	1255.95	1251.74	1607.5	1595.9	1591.6	1597.6
x1 = 0.8766	1269.84	1265.74	1262.51	1258.3	1610	1595.9	1589.9	1597.6
x1 = 0.9011	1273.08	1268.96	1265.71	1261.43	1612.6	1596.6	1589.4	1597.9
x1 = 0.9203	1275.47	1271.38	1267.99	1263.7	1614.6	1599	1591	1597.3

[2]
Conditions	excess molar enthalpy [kcal/mol]
x1 = 0.0987	-0.0136
x1 = 0.1451	-0.0198
x1 = 0.1991	-0.0272
x1 = 0.2547	-0.0339
x1 = 0.3012	-0.038
x1 = 0.3428	-0.0423
x1 = 0.3984	-0.0461
x1 = 0.4425	-0.0483
x1 = 0.4851	-0.0497
x1 = 0.5335	-0.0502
x1 = 0.6021	-0.048
x1 = 0.6689	-0.0454
x1 = 0.7148	-0.0418
x1 = 0.7723	-0.0359
x1 = 0.8227	-0.0289
x1 = 0.8769	-0.0213
x1 = 0.9012	-0.0174
x1 = 0.9113	-0.016

CCn1cc[n+](C)c1.F[B-](F)(F)F [1-ethyl-3-methylimidazolium tetrafluoroborate] + C[S+](C)[O-]
[1]
Conditions	mass density, 293.15 K [kg/m3]	mass density, 298.15 K [kg/m3]	mass density, 303.15 K [kg/m3]	mass density, 308.15 K [kg/m3]	speed of sound, 293.15 K [m/s]	speed of sound, 298.15 K [m/s]	speed of sound, 303.15 K [m/s]	speed of sound, 308.15 K [m/s]
x1 = 0.1319	1154.13	1149.63	1145.2	1140.37	1533	1514.8	1498.7	1481.3
x1 = 0.1819	1170.55	1166.13	1161.81	1157.02	1544.4	1526.6	1510.3	1492.8
x1 = 0.2336	1185.68	1181.3	1177.06	1172.25	1556.2	1538.6	1522.2	1504.7
x1 = 0.2909	1200.5	1196.12	1191.89	1187.15	1567.8	1551	1535.1	1517.4
x1 = 0.3417	1212.05	1207.64	1203.45	1198.76	1577.3	1561.5	1545.4	1528.1
x1 = 0.3799	1219.83	1215.48	1211.24	1206.59	1584	1568.7	1552.3	1535.9
x1 = 0.4215	1227.57	1223.18	1219.02	1214.39	1589.9	1575.8	1559.5	1543.2
x1 = 0.4719	1236	1231.61	1227.4	1222.88	1596.3	1583.7	1567.7	1552
x1 = 0.5335	1244.97	1240.56	1236.44	1232.02	1602.8	1591.2	1575.8	1560.5
x1 = 0.5782	1250.68	1246.29	1242.17	1237.86	1606.2	1595.6	1580.4	1566.1
x1 = 0.6198	1255.44	1251.13	1247.04	1242.76	1608.8	1598.6	1584.3	1571
x1 = 0.6717	1260.78	1256.5	1252.45	1248.28	1611	1601.8	1588.6	1575.9
x1 = 0.7204	1265.23	1260.99	1257	1252.91	1613	1604.4	1591.7	1579.7
x1 = 0.7737	1269.58	1265.39	1261.48	1257.45	1614.7	1606.4	1594.6	1583.2
x1 = 0.8219	1273.1	1268.95	1265.1	1261.11	1616.4	1607.9	1596.8	1586
x1 = 0.8783	1276.82	1272.74	1268.97	1264.97	1619.2	1610.3	1599.7	1588.9
x1 = 0.9041	1278.42	1274.36	1270.62	1266.61	1621	1611.6	1601.1	1590.4
x1 = 0.9249	1279.65	1275.62	1271.9	1267.87	1622.6	1612.9	1602.2	1591.6

[2]
Conditions	excess molar enthalpy [kcal/mol]
x1 = 0.1116	-0.104
x1 = 0.1785	-0.159
x1 = 0.2157	-0.192
x1 = 0.2854	-0.233
x1 = 0.3259	-0.256
x1 = 0.3981	-0.281
x1 = 0.4368	-0.285
x1 = 0.4852	-0.29
x1 = 0.5111	-0.291
x1 = 0.5729	-0.281
x1 = 0.6255	-0.26
x1 = 0.6899	-0.232
x1 = 0.7365	-0.208
x1 = 0.7943	-0.168
x1 = 0.8338	-0.137
x1 = 0.8896	-0.0906
x1 = 0.9012	-0.0839
x1 = 0.9258	-0.0619
